Measured values: US12186323B2, “Combination drugs of hypoxanthine and human immunoglobulin” (Institute of Blood Transfusion, Chinese Academy of Medical …, priority 2021, dated 2025)

Tested on: male mice
Assay: Analysis of intestinal injury by 12 Gy of local abdominal irradiation
Assay type: in vivo
Conditions: 12 Gy local abdominal irradiation
Protocol: 44 male mice were divided into 4 groups: • 1) TAI group, 10 mice; • 2) hypoxanthine group, 10 mice; • 3) IVIg group, 12 mice; • 4) IVIg+hypoxanthine group, 12 mice;
TAI group received only local abdominal irradiation.
Hypoxanthine was orally administered to the mice in hypoxanthine group 30 min before irradiation, followed by gavage through mouth every two days. The dose of hypoxanthine for each gavage was 50 mg/kg body weight.

[1] = hypoxanthine vs TAI group (FIG. 6), IVIg+hypoxanthine vs IVIg group (FIG. 8)

O=c1[nH]cnc2nc[nH]c12 [hypoxanthine]
no difference: length of the large intestine (hypoxanthine vs TAI group (FIG. 5), IVIg+hypoxanthine vs IVIg group (FIG. 7)) | level of inflammatory factor IL-6 in the small intestine [1] | level of inflammatory factor TNFα in the small intestine [1]
